In one test the test system is pERK in AGS cells. Nature of the test: ERK phosphorylation cell assay, AGS. The format is cell-based. As to conditions: 3 hours compound incubation, read-out: pERK AGS_IC50. In outline:
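AGS […] cells, seeded overnight, were treated with compound for 3 hours at 37° C. pERK was detected by in-cell immunofluorescence, with GAPDH as normalizer, using 800CW/680RD secondary antibodies. Mean relative p-ERK levels were fitted against log concentration, with DMSO as negative and 10 μM Reference as positive control.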

The target of test [1] is KRAS G12D GTP protein (His-tag-KRAS G12D) (Homo sapiens (Human), UniProt P01116, G12D). Briefly: AlphaLISA compound screening assay, KRAS-GTP protein format. As to conditions: AlphaLISA with cRAF, read-out: GTP-format IC50 (nM)/ Binding assay.
Another test concerns AsPC-1 cells. Briefly: 3D cell proliferation assay (CellTiter-Glo 3D), AsPC-1. Conditions: 5 days, read-out: 3D Proliferation Inhibition AsPC-1_IC50. The format is cell-based. The method, boiled down: (§1)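 Cells grown with compound as 3D cultures in low-adsorption plates for 5 days at 37° C, 5% CO2. Viability read as ATP luminescence (CellTiter-Glo 3D), normalised to DMSO and medium-only controls; IC50 from non-linear fit of inhibition versus log concentration.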
In general terms: ATP-based viability assays read luminescence as a measure of living cells.

The test system of another test is AGS cells. Nature of the test: 3D cell proliferation assay (CellTiter-Glo 3D), AGS. In kind it is cell-based. As to conditions: 5 days, read-out: 3D Proliferation Inhibition AGS_IC50. In outline: as §1
The test system of the next test is pERK in AsPC-1 cells. Briefly: ERK phosphorylation cell assay, AsPC-1. The format is cell-based. Conditions: AsPC-1 cells; read-out: pERK AsPC-1_IC50.
For test [2], the target named is KRAS G12D GDP protein (His-tag-KRAS G12D) (Homo sapiens (Human), UniProt P01116, G12D). Briefly: AlphaLISA compound screening assay, KRAS-GDP protein format. As to conditions: AlphaLISA with SOS1, GTP, cRAF, read-out: GDP-format IC50 (nM)/ Binding assay. The method, then:
• Buffer 1: Composition and final concentrations: 25 mM HEPES, pH 7.5; 10 mM MgCl2; 0.01% Triton X-100. • Buffer 2: Composition and final concentrations: 25 mM HEPES, pH 7.5; 10 mM MgCl2; 0.01% Triton X-100; 1 mM DTT.
• 4> Use the ECHO555 automated liquid handler to prepare compounds. Test concentrations: The maximum compound concentration is 10 μM or 1 μM, serially diluted 3-fold, with 10 concentrations tested. Each concentration is tested in duplicate, with 0.5% DMSO as the solvent. • 5> High Signal Control Group (High Control): 30 replicates with 0.5% DMSO. KRAS protein is included in the reaction, representing 0% inhibition • 6> Low Signal Control Group (Low Control): 30 replicates with 0.5% DMSO. KRAS protein is not involved in the reaction, representing 100% inhibition
d. KRAS-GDP Protein Assay Procedure • 6> Add 5 μL of KRAS solution prepared with Buffer 1 to each well of the high-signal control group and compound test wells. Add 5 μL of Buffer 1 to each well of the low-signal control group. […] Incubate at room temperature for 1 hour. • 10> Measure the signal values using an EnVision plate reader. […] Incubate at room temperature for 1 hour. • 10> Measure the signal values using an EnVision plate reader. […] Incubate at room temperature for 1 hour. • 10> Measure the signal values using an EnVision plate reader. […]
(In general: In Alpha technology, singlet oxygen from a donor bead excites a nearby acceptor bead.)

In test [3] the target is KRAS G12D GCP protein (His-tag-KRAS G12D) (Homo sapiens (Human), UniProt P01116, G12D). Nature of the test: AlphaLISA compound screening assay, KRAS-GCP protein format. Conditions: AlphaLISA with cRAF, read-out: GCP-format IC50 (nM)/ Binding assay.

Our source for the IC50 values is patent publication US20260049089A1, “KRAS INHIBITOR COMPOUND” (SHANGHAI APEIRON THERAPEUTICS COMPANY LIMITED, priority 2022, published 2026).

Sequence of KRAS G12D GTP protein (His-tag-KRAS G12D) (P01116-2 other isoform, or with tags, fused parts or gaps G12D): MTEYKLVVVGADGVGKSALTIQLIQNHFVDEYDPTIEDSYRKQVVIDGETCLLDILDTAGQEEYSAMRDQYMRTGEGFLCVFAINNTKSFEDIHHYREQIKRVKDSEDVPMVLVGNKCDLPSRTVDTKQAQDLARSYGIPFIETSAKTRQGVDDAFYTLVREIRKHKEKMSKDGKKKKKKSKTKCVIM
Sequence of KRAS G12D GCP protein (His-tag-KRAS G12D) (P01116-2 other isoform, or with tags, fused parts or gaps G12D): as above
Sequence of KRAS G12D GDP protein (His-tag-KRAS G12D) (P01116-2 other isoform, or with tags, fused parts or gaps G12D): as above

Turning to `O=C1CCCCCc2c(F)ccc3cc(O)cc(c23)-c2c(cc3c(N4CC5CCC(C4)N5)nc(OC[C@@]45CCCN4C[C@H](F)C5)nc3c2F)N1` [Example 9B, 12-((1R,5S)-3,8-diazabicyclo[3.2.1]octan-3-yl)-3,16-difluoro-14-(((2R,7aS)-2-fluorotetrahydro-1H-pyrazin-7a(5H)-yl)methoxy)-18-hydroxy-5,6,7,8-tetrahydro-4H-naphtho[1′,8′:4,5,6][1]azacyclododecino[2,3-g]quinazolin-9(10H)-one], the IC50 in the test with pERK in AGS cells came to 17 nM; in test [1], 1.95 nM; in the test on AsPC-1 cells, 222 nM; in the test with AGS cells, 93 nM; in the test with pERK in AsPC-1 cells it was 70 nM; in test [2], 1.6 nM. Also, in test [3], the IC50 was 58.5 nM.

With `O=C1CCCCCCCCCc2c(F)ccc3cc(O)cc(c23)-c2c(cc3c(N4CC5CCC(C4)N5)nc(OC[C@@]45CCCN4C[C@H](F)C5)nc3c2F)N1` [Example 11, 16-((1R,5S)-3,8-diazabicyclo[3.2.1]octan-3-yl)-3,20-difluoro-18-(((2R,7aS)-2-fluorotetrahydro-1H-pyrazin-7a(5H)-yl)methoxy)-22-hydroxy-5,6,7,8,9,10,11,12-octahydro-4H-naphtho[1′,8′:4,5,61][1]azacyclohexadecano[2,3-g]quinazolin-13(14H)-one], the results for the IC50 in test [1], in test [2] and in test [3] were 726 nM, 500 nM and 909 nM, respectively.
